Patent US20110015226A1, “Treatment of Energy Utilization Disease” (SUMMIT CORPORATION PLC, priority 2008, published 2011)

Key:
Type in all cases: biochemical
[1] = molecular target: T1, Amyloglucosidase Aspergillus niger (Aspergillus niger, UniProt P69328); test: Glycosidase inhibition: Amyloglucosidase Aspergillus niger; conditions: compounds tested at 0.8 mM
T1 construct: purchased Sigma
Source text: (§1) The results tabulated below were obtained using commercially available glycosidases and p-nitrophenyl-substrates using standard methods described for example by Watson et al (1997) Phytochemistry 46 255-259. All enzymes and substrates were bought from Sigma. Enzyme and substrate solutions were made using sodium phosphate buffers at the pH optima values. The enzymes used were α-D-glucosidase Saccharomyces cerevisiae, Bacillus stearothermophilus, Oryzae sativa), β-D-glucosidase (Almond), α-D-mannosidase (Jack bean), α-D-galactosidase (Green coffee beans), β-D-galactosidase (Bovine liver), α-L-fucosidase (Bovine kidney), N-acetyl-β-D-glucosaminidase (Bovine kidney, Jack bean, Aspergillus oryzae), Naringinase (Penicillium decumbens) and amyloglucosidase (Aspergillus niger). All enzymes were used with the appropriate p-nitrophenyl substrates (5 mM). Amyloglucosidase activity was measured using amylopectin (0.1%) (Merck) mixed with sodium phosphate buffer, pH 4.5 in a glass bottle, and healed in a boiling water bath for 20 minutes to dissolve with released glucose measured using ‘Trinder’ glucose detection solution (Sigma).
(§2) All enzymes and para-nitrophenyl substrates were purchased from Sigma, with the exception of beta-mannosidase which came from Megazyme. Enzymes were assayed at 27° C. in 0.1M citric acid/0.2M disodium hydrogen phosphate buffers at the optimum pH for the enzyme. The incubation mixture consisted of 10 μl enzyme solution, 10 μl of 1 mg/ml aqueous solution of extract and 50 μl of the appropriate 5 mM para-nitrophenyl substrate made up in buffer at the optimum pH for the enzyme. The reactions were stopped by addition of 70 μl 0.4M glycine (pH 10.4) during the exponential phase of the reaction, which had been determined at the beginning using uninhibited assays in which water replaced inhibitor. Final absorbances were read at 405 nm using a Versamax microplate reader (Molecular Devices). Assays were carried out in triplicate, and the values given are means of the three replicates per assay. (See Watson, A. A., Nash, R. J., Wormald, M. R., Harvey, D. J., Dealler, S., Lees, E., Asano, N., Kizu, H., Kato, A., Griffiths, R. C., Cairns, A. J. and Fleet, G. W. J. (1997). Glycosidase-inhibiting pyrrolidine alkaloids from Hyacinthoides non-scripta. Phytochemistry 46 (2): 255-259.)

[2] = molecular target: T2, rabbit intestinal sucrase (Oryctolagus cuniculus, UniProt P07768); test: Rabbit disaccharidase inhibition assay: sucrase; conditions: NI: no inhibition at 0.8 mM
T2 construct: The small intestine was dissected out of a female wild rabbit; from tissue; host or cells: small-intestinal mucosa of a female wild rabbit
T2 sequence (P07768 whole entry): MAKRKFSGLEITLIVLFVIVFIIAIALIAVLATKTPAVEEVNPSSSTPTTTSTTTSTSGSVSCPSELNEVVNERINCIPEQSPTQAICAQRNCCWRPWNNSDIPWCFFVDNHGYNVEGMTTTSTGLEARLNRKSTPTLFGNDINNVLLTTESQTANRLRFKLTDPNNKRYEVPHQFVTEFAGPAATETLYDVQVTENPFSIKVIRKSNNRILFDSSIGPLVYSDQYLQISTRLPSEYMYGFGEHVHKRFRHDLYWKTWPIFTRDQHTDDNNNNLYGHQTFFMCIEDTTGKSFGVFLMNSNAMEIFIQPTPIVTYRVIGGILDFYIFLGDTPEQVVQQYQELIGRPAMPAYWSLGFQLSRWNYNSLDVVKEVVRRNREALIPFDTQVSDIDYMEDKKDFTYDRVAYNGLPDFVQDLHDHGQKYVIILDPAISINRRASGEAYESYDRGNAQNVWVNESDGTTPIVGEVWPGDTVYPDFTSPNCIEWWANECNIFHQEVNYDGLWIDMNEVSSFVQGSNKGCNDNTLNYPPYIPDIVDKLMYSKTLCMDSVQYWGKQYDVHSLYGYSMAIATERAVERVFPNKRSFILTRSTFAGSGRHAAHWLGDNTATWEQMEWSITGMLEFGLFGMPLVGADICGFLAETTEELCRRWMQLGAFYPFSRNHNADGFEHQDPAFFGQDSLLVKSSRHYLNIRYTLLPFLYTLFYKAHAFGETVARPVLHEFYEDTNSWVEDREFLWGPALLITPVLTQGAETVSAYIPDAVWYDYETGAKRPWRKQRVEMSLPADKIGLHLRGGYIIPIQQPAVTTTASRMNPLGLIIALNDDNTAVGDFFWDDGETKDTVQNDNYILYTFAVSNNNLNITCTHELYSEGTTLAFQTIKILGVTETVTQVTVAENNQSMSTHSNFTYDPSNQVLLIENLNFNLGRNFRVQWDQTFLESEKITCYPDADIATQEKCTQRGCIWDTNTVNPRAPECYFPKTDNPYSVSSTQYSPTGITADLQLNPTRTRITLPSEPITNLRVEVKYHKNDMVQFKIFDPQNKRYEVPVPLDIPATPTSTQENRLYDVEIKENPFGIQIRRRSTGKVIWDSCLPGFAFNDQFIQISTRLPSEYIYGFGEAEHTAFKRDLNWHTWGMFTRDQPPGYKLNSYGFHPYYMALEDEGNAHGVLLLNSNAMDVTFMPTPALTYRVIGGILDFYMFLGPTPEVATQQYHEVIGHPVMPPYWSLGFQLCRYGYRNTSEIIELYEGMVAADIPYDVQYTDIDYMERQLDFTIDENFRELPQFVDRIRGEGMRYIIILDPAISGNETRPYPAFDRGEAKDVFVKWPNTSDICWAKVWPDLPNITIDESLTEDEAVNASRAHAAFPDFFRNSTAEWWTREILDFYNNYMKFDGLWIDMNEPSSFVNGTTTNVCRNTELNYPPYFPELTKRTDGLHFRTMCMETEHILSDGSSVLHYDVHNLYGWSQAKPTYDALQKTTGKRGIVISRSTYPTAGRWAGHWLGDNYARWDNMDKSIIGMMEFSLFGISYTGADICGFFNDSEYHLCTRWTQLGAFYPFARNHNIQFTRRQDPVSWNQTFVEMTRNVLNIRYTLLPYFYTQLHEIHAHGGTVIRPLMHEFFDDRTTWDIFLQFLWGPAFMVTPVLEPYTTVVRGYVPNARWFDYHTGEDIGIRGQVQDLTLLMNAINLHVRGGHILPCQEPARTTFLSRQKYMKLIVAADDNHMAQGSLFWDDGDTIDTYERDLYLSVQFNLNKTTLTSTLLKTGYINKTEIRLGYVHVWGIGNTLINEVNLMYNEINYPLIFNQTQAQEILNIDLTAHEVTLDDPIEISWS
Method: Sucrose (8.3 mM), maltose (5 mM) and isomaltose (6.3 mM) substrates were made using 0.2 M Macllvaine (citrate-phosphate) buffer, pH 6.0. The glucose detection reagent was prepared according to the supplier's instructions (Megazyme Ltd). Linearity of the timecourse of the reaction between the glucose detection reagent and glucose was tested using a series of glucose dilutions.
The method for preparation of mammalian small intestine mucosal disaccharidases was based on Griffiths (1998), omitting ammonium sulphate fractionation steps. The small intestine was dissected out of a female wild rabbit, and opened longitudinally using a scalpel. The mucosal layer was scraped off using the edge of a clean microscope slide, and placed into 3 ml of dH2O. The mucosal layer suspension was centrifuged at around 1000 rpm for 30 seconds to sediment tissue debris. The supernatant ([…]) was removed, and centrifuged again at 3500 rcf for 1 minute to remove fine particulates from suspension. The supernatant was diluted to give 0.2-0.25 mg/ml protein and stored at −30° C.
Enzyme assays were carried out using 5-15 μl of enzyme preparation, 5 μl of test compound (or dH2O for controls) and 15-25 μl of substrate solution. Reactions were covered using a sheet of plate sealing film, and incubated at 37° C. for 60 minutes. Glucose (from disaccharide hydrolysis) was quantified by adding 200 μl of glucose detection reagent and incubating the reactions for a further twenty-five minutes. Absorbance was measured at 510 nm against control blanks.

[3] = molecular target: α-D-glucosidase (Bacillus) (Geobacillus stearothermophilus, UniProt A0ACH1E9U3); test: Glycosidase inhibition: α-D-glucosidase (Bacillus); conditions: compounds tested at 0.8 mM
Chain of α-D-glucosidase (Bacillus) (A0ACH1E9U3 entry or part of it): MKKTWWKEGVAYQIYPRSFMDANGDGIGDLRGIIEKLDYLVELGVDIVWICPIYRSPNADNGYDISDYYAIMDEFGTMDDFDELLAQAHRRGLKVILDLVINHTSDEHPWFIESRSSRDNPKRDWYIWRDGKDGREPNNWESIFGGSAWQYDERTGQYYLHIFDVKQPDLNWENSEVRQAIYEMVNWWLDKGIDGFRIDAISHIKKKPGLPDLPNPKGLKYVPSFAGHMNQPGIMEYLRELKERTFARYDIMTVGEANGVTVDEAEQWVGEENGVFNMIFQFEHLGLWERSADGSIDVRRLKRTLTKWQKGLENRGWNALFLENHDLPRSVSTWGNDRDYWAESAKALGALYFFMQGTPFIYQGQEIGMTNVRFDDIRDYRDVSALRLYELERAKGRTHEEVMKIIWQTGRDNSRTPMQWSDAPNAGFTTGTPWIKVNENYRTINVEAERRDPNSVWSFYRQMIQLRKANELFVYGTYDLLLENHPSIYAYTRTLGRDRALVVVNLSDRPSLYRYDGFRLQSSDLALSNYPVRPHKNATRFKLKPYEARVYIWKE
Source text: as §1, §2

[4] = molecular target: T3, α-D-mannosidase Jack bean (Canavalia ensiformis, UniProt C0HJB3); test: Glycosidase inhibition: α-D-mannosidase Jack bean; conditions: compounds tested at 0.8 mM
T3 construct: α-D-mannosidase (Jack bean); purchased Sigma
T3 sequence (C0HJB3 1-981): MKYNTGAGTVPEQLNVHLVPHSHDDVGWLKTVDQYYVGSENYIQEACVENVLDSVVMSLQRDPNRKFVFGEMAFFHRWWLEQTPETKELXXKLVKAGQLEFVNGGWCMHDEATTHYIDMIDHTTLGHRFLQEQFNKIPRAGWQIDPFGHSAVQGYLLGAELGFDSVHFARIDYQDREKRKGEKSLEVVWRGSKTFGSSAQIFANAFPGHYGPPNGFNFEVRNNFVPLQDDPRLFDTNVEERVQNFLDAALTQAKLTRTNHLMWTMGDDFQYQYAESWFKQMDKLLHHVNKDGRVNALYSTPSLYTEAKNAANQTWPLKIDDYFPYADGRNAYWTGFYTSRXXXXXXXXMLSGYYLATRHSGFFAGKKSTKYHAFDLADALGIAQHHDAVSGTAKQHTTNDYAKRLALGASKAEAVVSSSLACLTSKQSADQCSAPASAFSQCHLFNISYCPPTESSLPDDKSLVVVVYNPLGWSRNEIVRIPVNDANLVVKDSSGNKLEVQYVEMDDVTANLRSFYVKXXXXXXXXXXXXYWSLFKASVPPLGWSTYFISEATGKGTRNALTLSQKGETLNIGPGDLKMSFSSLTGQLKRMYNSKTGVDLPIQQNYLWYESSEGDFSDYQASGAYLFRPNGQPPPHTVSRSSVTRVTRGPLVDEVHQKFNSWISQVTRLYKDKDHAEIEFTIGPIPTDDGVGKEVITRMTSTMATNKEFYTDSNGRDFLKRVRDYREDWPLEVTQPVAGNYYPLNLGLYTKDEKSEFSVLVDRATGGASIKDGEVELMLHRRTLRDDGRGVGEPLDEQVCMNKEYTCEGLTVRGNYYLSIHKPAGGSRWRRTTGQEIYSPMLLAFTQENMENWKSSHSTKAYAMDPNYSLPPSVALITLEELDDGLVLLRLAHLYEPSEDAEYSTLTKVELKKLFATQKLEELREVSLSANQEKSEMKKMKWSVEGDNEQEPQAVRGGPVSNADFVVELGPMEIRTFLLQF

T1 sequence (P69328 25-640): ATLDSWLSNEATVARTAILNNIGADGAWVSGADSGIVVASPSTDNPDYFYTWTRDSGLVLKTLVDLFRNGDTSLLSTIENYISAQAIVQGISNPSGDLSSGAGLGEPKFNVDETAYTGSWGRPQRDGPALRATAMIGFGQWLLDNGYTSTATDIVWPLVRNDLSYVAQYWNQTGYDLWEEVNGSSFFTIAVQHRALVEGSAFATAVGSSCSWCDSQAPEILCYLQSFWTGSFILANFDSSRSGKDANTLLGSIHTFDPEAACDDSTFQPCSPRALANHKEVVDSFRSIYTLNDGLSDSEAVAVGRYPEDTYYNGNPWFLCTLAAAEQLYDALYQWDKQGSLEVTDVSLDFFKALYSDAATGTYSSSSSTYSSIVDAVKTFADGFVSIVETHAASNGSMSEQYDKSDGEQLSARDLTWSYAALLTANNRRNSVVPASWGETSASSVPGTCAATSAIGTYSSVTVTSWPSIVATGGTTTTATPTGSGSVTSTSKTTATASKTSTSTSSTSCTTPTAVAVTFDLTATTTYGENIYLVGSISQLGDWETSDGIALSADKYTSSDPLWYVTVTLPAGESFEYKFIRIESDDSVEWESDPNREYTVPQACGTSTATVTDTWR

Structure (SMILES)	inhibition at 800 µM [1] [%]	IC50 [2] [µM]	inhibition at 800 µM [3] [%]	inhibition at 800 µM [4] [%]	sucrase IC50 (uM) [2]	% inhibition, α-D-mannosidase Jack bean [4] [%]
CCCCOC(=O)[C@@H]1[C@@H](O)[C@H](O)[C@@H](O)CN1CCCC [Compound T2, (2S,3R,4R,5S)-Butyl 1-butyl-3,4,5-trihydroxypiperidine-2-carboxylate]	< 50	> 800	< 50	< 50		
O=C(O)CCN1C[C@H](O)[C@@H](O)[C@H](O)[C@H]1CO [Compound T1]	53	6.1	< 50	< 50	very weak inhibition	
O=C(O)CN1[C@H](CO)[C@@H](O)[C@H](O)[C@H]1CO [Compound S2, 2-((2R,3R,4R,5R)-3,4-Dihydroxy-2,5-bis(hydroxymethyl)pyrrolidin-1-yl)acetic acid]	< 50	> 800	92.7	< 50		
O=C(O)[C@H]1NC[C@H](O)[C@@H](O)[C@@H]1O [Compound G2, 2S,3R,4R,5S-trihydroxypiperidine-2-carboxylic acid]	< 10	> 800	49	29		
OC[C@H]1NC[C@H](O)[C@@H](O)[C@@H]1O [DNJ, 1-deoxynojirimycin, reference compound]	32	0.09	100	26		27
